# Test results taken from PubChem BioAssay (NCI).
#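 Cells were grown in 96-well plates and exposed to each compound for 48 hours at five concentrations; endpoints were interpolated linearly between bracketing concentrations, or set to the highest concentration if not reached. Here, GI50 denotes the concentration required for 50% inhibition of growth. The concentration for full growth arrest is given as TGI.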
# Legend:
# Experiment in all cases: growth of human tumour cells (NCI), 48 h
# HS 578T breast = test system: HS 578T breast
# MDA-N = test system: MDA-N
# DLD-1 colon = test system: DLD-1 colon
# DMS 114 small cell lung = test system: DMS 114 small cell lung
# KM20L2 colon = test system: KM20L2 colon
# RXF-631 renal = test system: RXF-631 renal
# SNB-78 CNS = test system: SNB-78 CNS
# BT-549 breast = test system: BT-549 breast
# XF 498 CNS = test system: XF 498 CNS
SMILES,TGI (HS 578T breast) [µM],TGI (DLD-1 colon) [µM],TGI (DMS 114 small cell lung) [µM],TGI (KM20L2 colon) [µM],TGI (SNB-78 CNS) [µM],TGI (BT-549 breast) [µM],GI50 (BT-549 breast) [µM],GI50 (HS 578T breast) [µM],also measured
COc1c(O)c(OC)c(C(=O)/C=C/c2ccccc2)c(O)c1OC,> 100,,,,,,,,TGI (MDA-N): 46 µM
Cc1cc(N(CCC#N)S(=O)(=O)c2ccccc2)ccc1C=O,,> 100,> 100,> 100,> 100,,,,TGI (RXF-631 renal): > 100 µM
O=c1c2ccccc2nc(-c2ccccc2)n1NCC1(O)OCC(O)C(O)C1O (centres undefined),,> 100,> 100,> 100,> 100,,,,
O=C(Oc1c(I)ccccc1=O)c1ccc([N+](=O)[O-])cc1,68.2,,,,,41.8,,,
N#Cc1c2c(c(N=[N+]=[N-])n3c1nc1ccccc13)CCCC2,,2.94,4.37,4.6,11.5,,,,TGI (XF 498 CNS): 3.13 µM
Cc1cc(CS(=O)(=O)/C=C/c2ccccc2[N+](=O)[O-])c(CS(=O)(=O)/C=C/c2ccccc2[N+](=O)[O-])cc1C,> 62.5,,> 100,> 100,66.2,44.4,,,TGI (MDA-N): 99.7 µM; TGI (XF 498 CNS): 38.3 µM
c1ccc2c(c1)nc(NCCN1CCNCC1)c1c3ccccc3[nH]c21,4.67,,,,,4.04,1.53,1.19,
N#CC1c2ccccc2-c2ccccc2N1C(=O)c1ccccc1 (centres undefined),6.72,,,,,2.54,0.507,1.99,
CN1CCCC1c1cccnc1.O=C(O)c1ccccc1O.O=C([O-])c1ccccc1[OH2+].O=C([O-])c1ccccc1[OH2+].O=C([O-])c1ccccc1[OH2+].[Mn+2] (centres undefined),> 100,,,,,> 100,39.7,2.43,GI50 (MDA-N): > 100 µM; TGI (MDA-N): > 100 µM
CC(C)OP(=O)(OC(C)C)C(N(C)C)P(=O)(OC(C)C)OC(C)C.[Cl][Sn]([Cl])([Cl])[c]1ccccc1,,> 100,23.1,15.8,> 100,,,,GI50 (DLD-1 colon): 2.89 µM; GI50 (DMS 114 small cell lung): 3.68 µM; GI50 (KM20L2 colon): 2.32 µM; GI50 (SNB-78 CNS): 8.01 µM
O=C1c2cccnc2C(=O)c2c1c(C(=O)OCCCN1CCOCC1)c1ccccn21,,,,,,1.82,0.0375,,
CCCCCCCCCCCCCCCC[N+]1(CC)CCCC1,3.26,,,,,,,0.679,
CC1=CC2=C(C)C3(CC3)[C@@](C)(O)C(=O)C2=C1,,> 0.935,0.313,0.498,> 0.631,,,,TGI (XF 498 CNS): 0.341 µM
c1ccc(SCCCC(Sc2ccccc2)Sc2ccccc2)cc1,,> 100,> 100,> 100,> 100,,,,TGI (XF 498 CNS): > 100 µM
Cc1ccc(C2=Nc3c(N)ncnc3NC(c3cccc(Nc4ccnc5cc(C(F)(F)F)ccc45)c3)C2)cc1 (centres undefined),> 100,,,,,13.4,2.83,4.01,
C/C(=C(/c1ccc(O)cc1)c1ccc(OCCN2CCCC2)cc1)c1ccccc1,9.9,,,,,15.7,4.2,2.96,
O=C1C=C(Nc2cccc(Br)c2)c2ccccc2C1=O,14.4,,,,,33.9,4.58,0.259,
Cc1nn(-c2ccccc2)c2c1C1C(=C(c3ccc(Cl)cc3)N2)C(=O)Nc2ccccc21 (centres undefined),> 100,,,,,9.32,2.81,8.59,

SMILES,TGI (HS 578T breast) [µM],TGI (DLD-1 colon) [µM],TGI (DMS 114 small cell lung) [µM],TGI (KM20L2 colon) [µM],TGI (SNB-78 CNS) [µM],TGI (BT-549 breast) [µM],GI50 (BT-549 breast) [µM],GI50 (HS 578T breast) [µM],also measured
O=c1oc(-c2ccc(O)c(O)c2)cc2cc(O)cc(O)c12,94.4,,,,,84.8,26.2,39.5,
CC1(CC(=O)O)OC2CCCCCC2O1 (centres undefined) (tested in a mixture with another compound),> 100,,,,,> 100,,,TGI (MDA-N): > 100 µM
c1ccc2c(c1)CCCc1cc3ccccc3nc1-2,,> 100,75.1,> 100,> 100,,,,TGI (XF 498 CNS): > 100 µM
COc1ccccc1C(=O)c1cnc(NC2CCN(S(C)(=O)=O)CC2)nc1N,> 25,,,,,> 25,> 13.3,11.4,
COC(=O)/C(=N\NC(=O)c1ccccc1O)C(C#N)c1ccc(Cl)cc1 (centres undefined),,> 100,> 100,> 100,> 100,,,,TGI (RXF-631 renal): > 100 µM
CCN(CC)CCOc1ccc(/C=C2\C[C@H]3[C@@H]4CC=C5C[C@@H](OC(C)=O)CC[C@]5(C)[C@H]4CC[C@]3(C)[C@H]2OC(C)=O)cc1OC,22.4,,,,,,,10.6,
C/C(=N\NS(=O)(=O)c1ccc(C)cc1)c1ccc[n+]([O-])n1,,> 100,> 100,> 100,,,,,TGI (XF 498 CNS): > 100 µM
CCOC(=O)/C=C1\Nc2ccccc2C(c2ccccc2)=NC1OC(C)=O (centres undefined),,> 100,> 100,,> 100,,,,
Oc1cccc(-c2nc3ccccc3s2)c1,44.4,,,,,> 100,,,TGI (MDA-N): 98.7 µM
COc1ccc(C2=CC(c3cc(OC)c(OC)c(OC)c3)n3ncnc3N2)cc1 (centres undefined),> 100,,,,,2.04,0.0684,0.0734,
CCOC(=O)c1[nH]c2c(c1C)-c1[nH]c(=O)c(S(=O)(=O)c3ccccc3)cc1SC2,94,,,,,> 100,36.5,24.7,
CCC1OCCN1C(C)C (centres undefined),,> 100,> 100,> 100,> 100,,,,
Nc1ncnc2occ(-c3ccc(NC(=O)Nc4cc(C(F)(F)F)cc(C(F)(F)F)c4)cc3)c12,8.03,,,,,5.77,2.66,2.12,
O=C(OCc1ccccc1CN1CCOCC1)c1ccc(Br)cc1,> 100,,,,,> 100,,,
Clc1ccc2c(Cl)ncnc2c1,,> 100,,> 100,,,,,TGI (XF 498 CNS): > 100 µM
CC1OC(=O)N(CCCC=C2SCCCS2)C1=O (centres undefined),,,> 100,> 100,> 100,,,,TGI (XF 498 CNS): > 100 µM
O=C(N[C@@H]1CCCc2ccccc21)[C@H](CCC(=O)N1CCN(C2CCCCC2)CC1)N1C(=O)[C@@H](N2C(=O)OC[C@@H]2c2ccccc2)[C@H]1/C=C/c1ccccc1,21.1,,,,,3.92,1.76,3.52,
